Data set [1] deals with HT29 human colorectal carcinoma cell line. Nature of the data set: Cytotoxicity (cell growth inhibition) in vitro, 72 h exposure, HT29. The data set is classed as cell-based. Particulars: HT-29, 72 hour-incubation, FA 20 μmol/L and/or PLP 160 μmol/L where present, read-out: IC50 in μmol/L of FUra (95% CI). Here is the method: (§1) The human colorectal carcinoma cell lines HT29, and HCT116 and the murine L1210 lymphocytic leukemia were thawed from mycoplasma-free frozen stocks and were controlled for contamination. Cells were grown in customized DMEM cell culture medium without any B6-vitamer (Gibco; Life Technologies) supplemented with 10% FBS and antibiotics (streptomycin, 50 μg/ml, and penicillin, 50 U/ml) at 37° C. in an atmosphere containing 5% CO2.
(§2) Cancer cells were exposed in 12 well-cell plates to FUra in various concentrations under four conditions; either as a single agent [FUra]; in combination with [6R,S]-folinic acid (20 μmon) [FUra-FA]; in combination with PLP (160 μmon; Sigma-Aldrich) [FUra-PLP]; and with both agents [6R,S]-folinic acid (20 μmon), and PLP (160 μmon) together [FUra-AF-PLP]. Cells were harvested 72 hours from start of the exposure. Cell viability was measured with the Trypan Blue dye exclusion test in Malassez chambers or by flow cytometry. For the latter method, living cells defined by light double scatter were counted in a BD Accuri C6 flow cytometer (BD Biosciences). Experiments were in duplicate.
(§3) Growth inhibition data obtained with FUra as a single agent [FUra], FUra with folinic acid [FUra-FA], FUra with PLP [FUra-PLP], and FUra with both folinic acid and PLP combined [FUra-FA-PLP] were studied according to the Median Effect principle for concentration-effect analysis. […]

The test system of data set [2] is HCT116 human colorectal carcinoma cell line. Briefly: Cytotoxicity (cell growth inhibition) in vitro, 72 h exposure, HCT116. The data set is classed as cell-based. The settings on record: HCT-116, 72 hour-incubation, FA 20 μmol/L and/or PLP 160 μmol/L where present, read-out: IC50 in μmol/L of FUra (95% CI). As to the method: as §1, §2, §3
Data set [3] has as its system L1210 murine lymphocytic leukemia. Nature of the data set: Cytotoxicity (cell growth inhibition) in vitro, 72 h exposure, L1210. The data set is classed as cell-based. Particulars: Mus musculus, 72 hour-incubation, FA 20 μmol/L and/or PLP 160 μmol/L where present, read-out: IC50 in μmol/L of FUra (95% CI). As to the method: as §1, §2, §3
A further data set relates to Cancer cells. Briefly: Cytotoxic properties per se of folinic acid and PLP. Particulars: in concentrations used in the present experiment (folinic acid 20, PLP 160 μmon). The data set is classed as cell-based. Here is the method: as §2
Data set [4] addresses purified rabbit liver SHMT. The settings on record: read-out: Kd of SHMT for PLP; cited from earlier work.
In data set [5] the target is T1, Human recombinant cytoplasmic cSHMT (Homo sapiens, UniProt P34896).
T1 sequence (P34896 1-483): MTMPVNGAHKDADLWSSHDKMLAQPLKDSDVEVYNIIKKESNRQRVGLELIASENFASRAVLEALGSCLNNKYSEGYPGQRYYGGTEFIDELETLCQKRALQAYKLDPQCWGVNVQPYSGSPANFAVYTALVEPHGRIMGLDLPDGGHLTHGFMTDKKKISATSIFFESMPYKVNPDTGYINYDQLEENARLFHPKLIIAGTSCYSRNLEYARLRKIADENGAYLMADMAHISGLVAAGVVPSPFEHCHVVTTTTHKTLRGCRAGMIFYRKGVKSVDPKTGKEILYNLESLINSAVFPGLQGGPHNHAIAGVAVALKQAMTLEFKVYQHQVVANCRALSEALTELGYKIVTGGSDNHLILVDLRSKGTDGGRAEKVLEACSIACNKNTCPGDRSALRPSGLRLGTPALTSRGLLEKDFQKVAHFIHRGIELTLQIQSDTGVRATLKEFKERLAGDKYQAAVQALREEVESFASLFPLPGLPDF
The settings on record: human recombinant cytoplasmic cSHMT (ref 22); read-out: Kd of SHMT for PLP; cited from earlier work.

For another data set, the target named is T2, human recombinant SHMT1 (Homo sapiens, UniProt P34896).
T2 sequence (P34896 1-483): T1 sequence (P34896 1-483)
The settings on record: human recombinant SHMT1 (ref 23); read-out: Kd of SHMT for PLP; cited from earlier work.

Another data set concerns the target T3, human recombinant SHMT2 (Homo sapiens, UniProt P34897).
T3 sequence (P34897 30-504): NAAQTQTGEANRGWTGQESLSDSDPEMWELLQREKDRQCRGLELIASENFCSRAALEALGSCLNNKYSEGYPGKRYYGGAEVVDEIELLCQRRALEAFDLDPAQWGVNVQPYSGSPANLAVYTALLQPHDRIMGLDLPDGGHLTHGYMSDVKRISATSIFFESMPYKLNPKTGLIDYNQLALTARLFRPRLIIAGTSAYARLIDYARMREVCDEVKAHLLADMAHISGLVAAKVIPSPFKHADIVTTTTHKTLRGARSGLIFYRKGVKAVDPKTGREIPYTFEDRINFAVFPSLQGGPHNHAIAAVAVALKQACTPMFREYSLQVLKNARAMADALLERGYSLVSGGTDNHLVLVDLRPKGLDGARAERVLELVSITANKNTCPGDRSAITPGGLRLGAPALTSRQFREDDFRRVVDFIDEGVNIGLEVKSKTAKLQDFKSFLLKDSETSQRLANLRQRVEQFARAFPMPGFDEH
Particulars: human recombinant SHMT2 (ref 23); read-out: Kd of SHMT for PLP; cited from earlier work.

For data set [6] the following is noted: female, Balb/C, mouse, in vivo; for Time by which erythrocyte PLP levels approach baseline concentrations after injection: ip.
Source text: Blood was collected in heparin. Measurements of B6 vitamers were done by HPLC.28
The conditions of data set [7]: mice, one or two injections of PM at 150 or 450 mg/kg.

Results on five compounds are retold here after patent US20210213020A1, “METHODS AND PHARMACEUTICAL COMPOSITIONS FOR TREATING CANCER” (INSERM (INSTITUT NATIONAL DE LA SANTÉ ET DE LA RECHIRCHE …, priority 2018, published 2021).

Molecules are shown by their SMILES. pIC50, pKd: −log10 of the molar value.

For the compound `O=c1[nH]cc(F)c(=O)[nH]1` [FUra, 5-fluorouracil], the pIC50 in [1] is 5.93; in [2], 5.88; in [3], 6.33.
One may read the pKd as the Kd on a negative log10 scale, so that one unit is a factor of ten. As to `Cc1ncc(COP(=O)(O)O)c(C=O)c1O` [PLP, pyridoxal 5′-phosphate], the “Cytotoxic properties per se” value in the data set on Cancer cells is “neither folinic acid nor PLP carry cytotoxic properties per se”. Also, the negative logarithm of the Kd (pKd) is 6.15 in data set [4], 6.07 in data set [5], 6.60 at human recombinant SHMT1 and 6.36 on human recombinant SHMT2.
Take `Cc1ncc(CO)c(CN)c1O` [PM, pyridoxamine]: in data set [6], the “Peak erythrocyte PLP concentration, 450 mg/kg versus 150 mg/kg” value is recorded as “about 6 fold” and the “Time by which erythrocyte PLP levels approach baseline concentrations after injection” value is at most 12 h. In addition, in data set [7], the “Signs of acute toxicity” value is “No signs of acute toxicity”.
For `Cc1ncc(CO)c(CO)c1O` [PN, pyridoxine, reference compound], the “Time by which erythrocyte PLP levels approach baseline concentrations after injection” value in data set [6] is at most 12 h.
Take `Nc1nc2c(c(=O)[nH]1)N(C=O)C(CNc1ccc(C(=O)N[C@@H](CCC(=O)O)C(=O)O)cc1)CN2` (stereo partly shown) [folinic acid, N5-formyl tetra hydro pteroylglutamate, reference compound]: in the data set on Cancer cells, the “Cytotoxic properties per se” value is recorded as “neither folinic acid nor PLP carry cytotoxic properties per se”.
